# pIC50: −log10 of the molar value.
# Molecular target: PHD2 (Homo sapiens, UniProt Q9GZT9)
# Assay: Assay for HIF-PHD2 catalytic activity (time-resolved fluorescence, VHL complex detection)
# Assay type: biochemical
# Conditions: FLAG-tagged full length PHD2; 0.2 μM 2-oxoglutarate, 0.5 μM HIF-1α peptide; read-out: PHD2 Activity (PHD2 binding activity expressed as IC50)
# Protocol: Assay for HIF-PHD2 Catalytic Activity
# After a 30 min preincubation at room temperature, the enzymatic reactions were initiated by the addition of 4 μL of substrates (final concentrations of 0.2 μM 2-oxoglutarate and 0.5 μM HIF-1α peptide biotinyl-DLDLEMLAPYIPMDDDFQL). After 2 hr at room temperature, the reactions were terminated and signals were developed by the addition of a 25 μL quench/detection mix to a final concentration of 1 mM ortho-phenanthroline, 0.1 mM EDTA, 0.5 nM anti-(His)6 LANCE reagent (Perkin-Elmer Life Sciences), 100 nM AF647-labeled streptavidin (Invitrogen), and 2 μg/ml (His)6-VHL complex (S. Tan (2001) Protein Expr. Purif. 21, 224-234). The ratio of time resolved fluorescence signals at 665 and 620 nm was determined, and percent inhibition was calculated relative to an uninhibited control sample run in parallel.
# PHD2, sequence (Q9GZT9 whole entry): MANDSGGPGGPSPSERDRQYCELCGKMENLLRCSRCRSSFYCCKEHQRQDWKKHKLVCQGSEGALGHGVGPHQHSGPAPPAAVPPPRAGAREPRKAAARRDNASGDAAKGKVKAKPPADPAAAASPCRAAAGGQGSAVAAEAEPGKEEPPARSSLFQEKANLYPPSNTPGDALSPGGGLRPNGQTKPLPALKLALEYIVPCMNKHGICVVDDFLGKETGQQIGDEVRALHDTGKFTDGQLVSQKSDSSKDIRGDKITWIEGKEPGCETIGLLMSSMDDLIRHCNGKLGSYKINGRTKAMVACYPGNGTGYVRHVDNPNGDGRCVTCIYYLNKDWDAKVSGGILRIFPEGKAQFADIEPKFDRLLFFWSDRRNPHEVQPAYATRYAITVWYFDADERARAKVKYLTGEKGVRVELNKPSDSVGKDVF
row,Compound,pIC50
1,"N#Cc1cnc2c(c1)C1(CCN(CC(=O)O)CC1)C(=O)N2c1ccc(-c2ccccc2)cc1 [Example 8, (1′-biphenyl-4-yl-5′-cyano-2′-oxo-1′,2′-dihydro-1H-spiro[piperidine-4,3′-pyrrolo[2,3-b]pyridin]-1-yl)acetic acid]",7.30 to 8.00
2,"Cc1cccnc1CN1CCC2(CC1)C(=O)N(c1ccc(-c3ccccc3)cc1)c1ncc(C(=O)O)cc12 [Example 5, 1′-biphenyl-4-yl-1-[(3-methylpyridin-2-yl)methyl]-2′-oxo-1′,2′-dihydrospiro[piperidine-4,3′-pyrrolo[2,3-b]pyridine]-5′-carboxylic acid]",≥ 8.30
3,"Cc1cccnc1CN1CCC2(CC1)C(=O)N(c1ccc(-c3ccccc3)cc1)c1nc(C(=O)O)ccc12 [Example 6, 1′-biphenyl-4-yl-1-[(3-methylpyridin-2-yl)methyl]-2′-oxo-1′,2′-dihydrospiro[piperidine-4,3′-pyrrolo[2,3-b]pyridine]-6′-carboxylic acid]",≥ 8.30
4,"Cc1cccnc1CN1CCC2(CC1)C(=O)N(c1ccc(-c3ccccc3)cc1)c1nc(C#N)ccc12 [Example 3, 1′-biphenyl-4-yl-1-[(3-methylpyridin-2-yl)methyl]-2′-oxo-1′,2′-dihydrospiro[piperidine-4,3′-pyrrolo[2,3-b]pyridine]-6′-carbonitrile]",≥ 8.30
5,"Cc1cccnc1CN1CCC2(CC1)C(=O)N(c1ccc(-c3ccccc3)cc1)c1ncc(C#N)cc12 [Example 4, 1′-biphenyl-4-yl-1-[(3-methylpyridin-2-yl)methyl]-2′-oxo-1′,2′-dihydrospiro[piperidine-4,3′-pyrrolo[2,3-b]pyridine]-5′-carbonitrile]",8.00 to 8.30
6,"O=C(O)CN1CCC2(CC1)C(=O)N(c1ccc(-c3ccccc3)cc1)c1ncc(C(=O)O)cc12 [Example 10, 1′-biphenyl-4-yl-1-(carboxymethyl)-2′-oxo-1′,2′-dihydrospiro[piperidine-4,3′-pyrrolo[2,3-b]pyridine]-5′-carboxylic acid]",8.00 to 8.30
7,"O=C(O)CN1CCC2(CC1)C(=O)N(c1ccc(-c3ccccc3)cc1)c1ncc(Br)cc12 [Example 7, (1′-biphenyl-4-yl-5′-bromo-2′-oxo-1′,2′-dihydro-1H-spiro[piperidine-4,3′-pyrrolo[2,3-b]pyridin]-1-yl)acetic acid]",7.30 to 8.00
8,"O=C(O)CN1CCC2(CC1)C(=O)N(c1ccc(-c3ccccc3)cc1)c1ncccc12 [Example 9, (1′-biphenyl-4-yl-2′-oxo-1′,2′-dihydro-1H-spiro[piperidine-4,3′-pyrrolo[2,3-b]pyridin]-1-yl)acetic acid]",7.30 to 8.00

# Reference: patent publication US8492398B2, “Spiroazaindoles” (Merck Sharp & Dohme Corp., priority 2008, dated 2013)
